Where two headings read alike, the source gives them in different places.

The target in the assay is DCN1-UBC12 interaction (Homo sapiens (Human), UniProt Q96GG9). Description: biochemical. To be noted: read-out: TR-FRET IC50. Type of assay: binding. In general terms: In TR-FRET formats the signal depends on donor and acceptor labels being close together.
Sequence of DCN1-UBC12 interaction (Q96GG9 60-248 limits assumed): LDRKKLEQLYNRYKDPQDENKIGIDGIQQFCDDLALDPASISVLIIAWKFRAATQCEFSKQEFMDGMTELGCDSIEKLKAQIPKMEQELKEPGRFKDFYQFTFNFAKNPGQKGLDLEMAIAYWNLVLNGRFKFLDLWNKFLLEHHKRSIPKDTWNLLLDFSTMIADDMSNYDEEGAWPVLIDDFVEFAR

With `Cc1ccc(NC(=O)NC2CCN(Cc3ccccc3)CC2)cc1C` [B63], the IC50 – broadly, the point on the concentration scale where inhibition reaches its midpoint – is over 67.6 µM.
Take `N#Cc1cccc(CN2CCC(N(Cc3ccccc3)C(=O)Nc3cc(F)cc(C(F)(F)F)c3)CC2)c1` [A230]: the IC50 is over 28.7 µM.
As for `COc1ccc(CN(C(=O)Nc2cc(C)ccc2OC)C2CCN(C(C)=O)CC2)cc1` [B87], the IC50 is over 67.6 µM.
Same read-out and setting: next, `CC(=O)N1CCC(N(Cc2ccco2)C(=O)Nc2ccccc2Br)CC1` [B71]: over 67.6 µM; `CCCC(C)N1CCC(N(Cc2ccccc2)C(=O)Nc2ccc(C(=O)OC)cc2)CC1` (stereo not drawn) [A163]: 8.42 µM; `COc1ccc(CN(C(=O)Nc2ccccc2Cl)C2CCN(C(C)=O)CC2)cc1` [B13]: 37.5 µM.
With `Cc1ccc(C(=O)N2CCC(C(=O)Nc3ccc(Cl)c(C(F)(F)F)c3)CC2)cc1` [C26], where the note is “Table 4, commercial compounds”, the IC50 is over 67.6 µM.
In the case of `CCCC(C)N1CCC(N(Cc2ccccc2)C(=O)Nc2c(C)cc(Br)cc2C)CC1` (stereo not drawn) [A265], the IC50 is over 65.7 µM.
The same measure, in the same setting: the value for `CCCC(C)N1CCC(N(Cc2ccccc2)C(=O)Nc2cccc3cnccc23)CC1` (stereo not drawn) [A244] was over 53.6 µM; that for `O=C(Nc1cccc(F)c1)NC1CCN(Cc2ccccc2)CC1` [B64] was over 67.6 µM; that for `Cc1ccc(CN(C(=O)Nc2ccccc2Br)C2CCN(Cc3ccccc3)CC2)o1` [B91] was over 67.6 µM.
On the same count and under the same terms, next, `C=CS(=O)(=O)Nc1cccc(CN(C(=O)Nc2cccc(C(F)(F)F)c2)C2CCN(C(C)CCC)CC2)c1` (stereo not drawn) [A27]: 0.165 µM; `O=C(Nc1cccc(I)c1)NC1CCN(Cc2ccccc2)CC1` [B98]: over 67.6 µM; `O=C(Nc1ccc(F)cc1)NC1CCN(Cc2ccccc2)CC1` [B43]: over 64.5 µM.
On the same count and under the same terms, next, `O=C(Nc1cc(C(F)(F)F)ccc1Cl)NC1CCN(Cc2ccccc2)CC1` [B101]: over 69.8 µM.
As for `CC(=O)N1CCC(N(Cc2ccco2)C(=O)Nc2ccc(C)c(C)c2)CC1` [B69], the concentration for half-maximal inhibition (IC50) is over 67.6 µM.
For the molecule `CCN(CC)CCN(CC)C(=O)c1cnn(-c2nccc(-c3cccs3)n2)c1COC` [E22], where the note is “Table 6, commercial compounds”, the IC50 came to 54.9 µM.
On to `CCCC(C)N1CCC(N(Cc2ccccc2)C(=O)Nc2cc(OC)ccc2Cl)CC1` (stereo not drawn) [A288], for which the IC50 is over 72.9 µM.
With `COc1cc(OC)cc(C(=O)N2CCC(c3nc4ccccc4s3)CC2)c1` [D22], the 50% inhibitory concentration (IC50) is over 67.6 µM.
Same read-out and setting: the value for `O=C(c1cccc(Br)c1)N1CCC(c2nc3cc(Cl)ccc3s2)CC1` [D18] was over 60.8 µM.
The same measure, in the same setting: the value for `COc1cccc(C(=O)N2CCC(c3nc4ccccc4s3)CC2)c1` [D14] was 66.4 µM; that for `C=CC(=O)Nc1cccc(CN(C(=O)Nc2cccc(C(F)(F)F)c2)C2CCN(C(C)CCC)CC2)c1` (stereo not drawn) [drawing 840] was 0.11 µM.
With `CCc1cccc(NC(=O)C2CCN(C(=O)N3CC(CC)Oc4ccccc43)CC2)c1` (stereo not drawn) [C56], the half-maximal inhibitory concentration (IC50) (Table 4, commercial compounds) is over 67.6 µM.
Take `COc1ccc(CN(C(=O)Nc2ccc(Cl)cc2)C2CCN(C(C)=O)CC2)cc1` [B81]: the half-maximal inhibitory concentration (IC50) was over 67.6 µM.
Still for that read-out and setting: next, `CCCN1CCC(N(Cc2cc(F)cc(C(F)(F)F)c2)C(=O)Nc2cccc(C(F)(F)F)c2)CC1` [A68, 1-(3-Fluoro-5-(Trifluoromethyl)Benzyl)-1-(1-Propylpiperidin-4-yl)-3-(3-(Trifluoromethyl)Phenyl)Urea]: 0.488 µM; `COC(=O)[C@@H]1C[C@@H](NC(=O)Nc2ccccc2)CN1Cc1ccccc1C(F)(F)F` [B99]: over 68 µM.
For the molecule `Cc1cccc(NC(=O)C2CCN(C(=O)c3cccc4ccccc34)CC2)c1` [C63], the IC50 (Table 4, commercial compounds) was over 67.6 µM.
In the case of “1-(1-((1H-Pyrazol-3-yl)Methyl)Piperidin-4-yl)-1-Benzyl-3-(3-(Trifluoromethyl)Phenyl)Urea [A180]”, the IC50 amounted to 19.8 µM.
In the case of `COc1cccc(C2c3c(C)nn(C)c3NC(=O)C2NC(=O)c2ccc(OC)c(OC)c2)c1` (stereo not drawn) [F21], the IC50 (Table 7, commercial compounds) was over 67.6 µM.
“1-Benzyl-1-(1-(3,3-Dimethylbutyl)Piperidin-4-yl)-3-(3-(Trifluoromethyl)Phenyl)Urea [A298]”: the 50% inhibitory concentration (IC50) was over 85 µM.
Still for that read-out and setting: the value for `CCCC(C)N1CCC(N(Cc2ccccc2)C(=O)Nc2ccc(F)c(Cl)c2)CC1` (stereo not drawn) [A53] was 0.287 µM.
Same read-out and setting: the value for `CCc1ccc(NC(=O)NC2CCN(C(C)C)CC2)cc1` [B62] was over 67.6 µM.
On the same count and under the same terms, next, `O=C(c1ccc(Cl)cc1)N1CCC(c2nc3ccccc3s2)CC1` [D20]: over 67.3 µM.
Regarding `Cc1cc(NC(=O)C2CCN(C(=O)c3ccco3)CC2)ccc1Br` [C38], under “Table 4, commercial compounds”, the IC50 was over 67.6 µM.
For `CCN(CC)CCN(CC)C(=O)c1cnn(-c2ncc3c(n2)-c2ccccc2CC3)c1C1CC1` [E9], the concentration for half-maximal inhibition (IC50) (Table 6, commercial compounds) is 23.1 µM.
Regarding `CCCC(C)N1CCC(N(Cc2cccnc2)C(=O)Nc2ccc(Cl)c(Cl)c2)CC1` (stereo not drawn) [A16], the IC50 was 0.0905 µM.
With `O=C(Nc1ccc(I)cc1)C1CCN(C(=O)c2ccco2)CC1` [C30], for the setting “Table 4, commercial compounds”, the IC50 was over 67.6 µM.
On to `CCC(C)CN1CCC(N(Cc2ccccc2)C(=O)Nc2cc(F)cc(C(F)(F)F)c2)CC1` (stereo not drawn) [A121], for which the IC50 came out at 1 µM.
The same measure, in the same setting: next, `CCCCN1CCC(N(Cc2ccccc2)C(=O)Nc2cc(C(F)(F)F)cc(C(F)(F)F)c2)CC1` [A274]: over 68.2 µM; `O=C(c1ccccc1O)N1CCC(c2nc3ccccc3s2)CC1` [D29]: over 67.6 µM.
Still for that read-out and setting: next, `CCCC(C)N1CCC(N(Cc2ccccc2)C(=O)Nc2ccc(O)cc2C)CC1` (stereo not drawn) [A115]: 2.36 µM; `O=C(CN1CCN(c2cccc(Cl)c2)CC1)Nc1cccc(C(F)(F)F)c1` [B31]: over 54.3 µM; `C#CCCCN1CCC(N(Cc2ccccc2NC(=O)CCl)C(=O)Nc2ccc(Cl)c(Cl)c2)CC1` [A252]: over 6.46 µM.
Same read-out and setting: the value for `CCCC(C)N1CCC(N(Cc2ccccc2)C(=O)Nc2ccc(S(=O)(=O)NC(C)=O)cc2)CC1` (stereo not drawn) [A283] was over 72.1 µM; that for `CCCC(C)N1CCC(N(Cc2ccccc2)C(=O)Nc2cccc(OC)c2OC)CC1` (stereo not drawn) [A250] was over 59.8 µM.
For `CCCC(C)N1CCC(N(Cc2cccnc2)C(=O)Nc2cc(F)cc(C(F)(F)F)c2)CC1` (stereo not drawn) [A39], the 50% inhibitory concentration (IC50) was determined as 0.213 µM.
Turning to `CCCCN(C(=O)Nc1ccc(F)c(C(F)(F)F)c1)C1CCN(C(C)CCC)CC1` (stereo not drawn) [A87], the 50% inhibitory concentration (IC50) is 1.01 µM.
The same measure, in the same setting: the value for `CCCC(C)N1CCC(N(Cc2ccccc2)C(=O)Nc2ccc(C(N)=O)cc2)CC1` (stereo not drawn) [A258] was over 62.2 µM; that for `O=C(c1ccc(F)cc1F)N1CCC(c2nc3ccccc3s2)CC1` [D11] was 30.6 µM.
With `CCN(CC)CCNC(=O)c1cnn(-c2nccc(-c3cccs3)n2)c1C(C)C` [E19], the IC50 (Table 6, commercial compounds) stood at 42.1 µM.
The same measure, in the same setting: the value for `COCCN1CCN(C(=O)c2cnn(-c3nccc(-c4cc(C)sc4C)n3)c2COC)CC1` [E8] was 22.8 µM.
In the case of `COc1cccc(NC(=O)C2CCN(C(=O)c3ccc(OC)c4ccccc34)CC2)c1` [C59], for the setting “Table 4, commercial compounds”, the IC50 is over 67.6 µM.
For the molecule `O=C(Nc1ccc(Cl)c(C(F)(F)F)c1)C1CCN(C(=O)c2ccc(F)cc2)CC1` [C20], the half-inhibitory concentration (IC50) (Table 4, commercial compounds) is over 67.6 µM.
With `CC(C)c1c(C(=O)N2CCN(CCO)CC2)cnn1-c1nccc(-c2cccs2)n1` [E7], the IC50 (Table 6, commercial compounds) is 21.3 µM.
For `CC(=O)c1cccc(NC(=O)NC2CCN(Cc3ccccc3)CC2)c1` [B102], the half-inhibitory concentration (IC50) is over 70.6 µM.
`CCOc1ccccc1N1CCN(C(=O)c2cnn(-c3nccc(-c4ccco4)n3)c2C)CC1` [E10]: the IC50 (Table 6, commercial compounds) is 25 µM.
For `CCN1CCC(N(Cc2ccco2)C(=O)Nc2ccc(C)c(Cl)c2)CC1` [B6], the IC50 stood at 6.85 µM.
Same read-out and setting: next, `CC(c1ccccn1)N1CCC(N(Cc2ccccc2)C(=O)Nc2cc(F)cc(C(F)(F)F)c2)CC1` (stereo not drawn) [A145]: 4.57 µM.
The same measure, in the same setting: next, `CCCC(C)N1CCC(N(Cc2ccccc2)C(=O)Nc2ccc(OC)c(Cl)c2)CC1` (stereo not drawn) [A138]: 4.05 µM.
On to `CCOc1ccc(C2c3c(C)nn(C)c3NC(=O)C2NC(=O)c2cccc(C)c2)cc1OC` (stereo not drawn) [F18], for which the IC50 (Table 7, commercial compounds) was over 67.6 µM.
As for `Cc1cc(C)cc(C(=O)N2CCCC(c3nc4ccccc4s3)C2)c1` (stereo not drawn) [D32], the IC50 was over 67.6 µM.
For the molecule `CC(=O)Nc1cccc(NC(=O)C2CCN(C(=O)c3ccco3)CC2)c1` [C39], the half-maximal inhibitory concentration (IC50) (Table 4, commercial compounds) is over 67.6 µM.
Regarding `CCCC(C)N1CCC(N(Cc2ccccc2)C(=O)Nc2cccc(F)c2Cl)CC1` (stereo not drawn) [A168], the IC50 amounted to 10.6 µM.
With `COc1cc(CN2CCC(NC(=O)Nc3ccccc3)CC2)cc(OC)c1OC` [B45], the concentration for half-maximal inhibition (IC50) was over 65.5 µM.
The same measure, in the same setting: next, `CC1CN(Cc2ccccc2)CC(C)C1NC(=O)Nc1nccs1` (stereo not drawn) [B9]: 18.6 µM; `O=C(Nc1cccc(Cl)c1)NC1CCN(Cc2ccccc2)CC1` [B110]: over 73.1 µM; `CCCC(C)N1CCC(N(Cc2ccccc2)C(=O)Nc2c(F)cc(F)cc2F)CC1` (stereo not drawn) [A272]: over 67.5 µM.
Consider `O=C(Nc1cccc(C(F)(F)F)c1)C1CCN(C(=O)c2cccc(F)c2)CC1` [C10], for which, where the note is “Table 4, commercial compounds”, the concentration for half-maximal inhibition (IC50) is over 42.9 µM.
On to `CCCN1CCC(NC(=O)Nc2cccc(Cl)c2)CC1` [B117], for which the half-inhibitory concentration (IC50) was over 77.1 µM.
On to `Cc1cccc(C(=O)NC2C(=O)Nc3c(c(C)nn3C)C2c2cccc(C)c2)c1` (stereo not drawn) [F32], for which, under “Table 7, commercial compounds”, the IC50 is over 67.6 µM.
As for `CCCC(C)N1CCC(N(Cc2ccccc2)C(=O)Nc2cccc(F)c2C)CC1` (stereo not drawn) [A151], the IC50 amounted to 5.66 µM.
For “1-Benzyl-1-(1-Hexylpiperidin-4-yl)-3-(3-(Trifluoromethyl)Phenyl)Urea [A289]”, the IC50 is over 73.2 µM.
Still for that read-out and setting: next, `CCCC(C)N1CCC(N(Cc2ccccc2)C(=O)Nc2ccc(SC(F)(F)F)cc2)CC1` (stereo not drawn) [A14]: 0.0853 µM; `CCCN1CCC(NC(=O)Nc2ccc(Cl)c(Cl)c2)CC1` [B56]: over 67.6 µM.
On the same count and under the same terms, the value for `COc1cc(C(=O)N2CCC(c3nc4ccccc4s3)CC2)cc(OC)c1Br` [D1] was 2.31 µM.
The same measure, in the same setting: next, `O=C(c1ccc(F)cc1)N1CCCC(c2nc3ccccc3s2)C1` (stereo not drawn) [D16]: over 48.7 µM; `O=C(Nc1cc(F)cc(C(F)(F)F)c1)N(Cc1ccccc1)C1CCN(Cc2nc3ccccc3s2)CC1` [A222]: over 25.2 µM.
Take `COc1ccc(CN(C(=O)Nc2cc(C)ccc2C)C2CCN(C(C)=O)CC2)cc1` [B82]: the half-inhibitory concentration (IC50) is over 67.6 µM.
Same read-out and setting: next, `CCCC(C)N1CCC(N(Cc2ccccc2)C(=O)Nc2cccc(N(C)C)c2)CC1` (stereo not drawn) [A112]: 2.3 µM; `CCc1ccc(NC(=O)NC2CCN(Cc3ccccc3)CC2)cc1` [B52]: over 67.6 µM.
As for `Cc1nn(-c2ccccc2)c2c1C(c1ccc(C(F)(F)F)cc1)C(NC(=O)c1ccccc1)C(=O)N2` (stereo not drawn) [F19], where the note is “Table 7, commercial compounds”, the concentration for half-maximal inhibition (IC50) was over 67.6 µM.

The record behind these values is patent US11116757B2 (priority 2015, dated 2021).
